Measured values as given in US10039753B2, “Imidazo[4,5-c]quinoline and imidazo[4,5-c][1,5]naphthyridine derivatives as LRRK2 inhibitors” (Pfizer Inc., priority 2015, dated 2018).
Counter-ions that a name gives are not always drawn. Like-named read-outs stand apart in the source and are kept apart here.

Tests used:
[1] = molecular target: T1, GST-tagged truncated LRRK2 (Homo sapiens, UniProt Q5S007); experiment: LRRK2 Assay, Format 2 (Lantha Screen), WT; type: biochemical
T1 construct: GST-tagged truncated LRRK2 from Invitrogen (Cat # PV4874); GST; purchased Invitrogen PV4874

mutant G2019S LRRK2 = mutant G2019S LRRK2 (Homo sapiens, UniProt Q5S007, G2019S); experiment: LRRK2 Assay, Format 2 (Lantha Screen), G2019S mutant; type: biochemical; set-up: purchased Invitrogen PV4881
[2] = geometric mean of 2-4 determinations unless otherwise indicated (a: >=5; b: single determination)
[3] = geometric mean of 2-4 determinations unless otherwise indicated (a: >=5; b: single determination), read-out: LRRK2, Format 2 G2019S IC50

T1 sequence (Q5S007 970-2527 limits assumed): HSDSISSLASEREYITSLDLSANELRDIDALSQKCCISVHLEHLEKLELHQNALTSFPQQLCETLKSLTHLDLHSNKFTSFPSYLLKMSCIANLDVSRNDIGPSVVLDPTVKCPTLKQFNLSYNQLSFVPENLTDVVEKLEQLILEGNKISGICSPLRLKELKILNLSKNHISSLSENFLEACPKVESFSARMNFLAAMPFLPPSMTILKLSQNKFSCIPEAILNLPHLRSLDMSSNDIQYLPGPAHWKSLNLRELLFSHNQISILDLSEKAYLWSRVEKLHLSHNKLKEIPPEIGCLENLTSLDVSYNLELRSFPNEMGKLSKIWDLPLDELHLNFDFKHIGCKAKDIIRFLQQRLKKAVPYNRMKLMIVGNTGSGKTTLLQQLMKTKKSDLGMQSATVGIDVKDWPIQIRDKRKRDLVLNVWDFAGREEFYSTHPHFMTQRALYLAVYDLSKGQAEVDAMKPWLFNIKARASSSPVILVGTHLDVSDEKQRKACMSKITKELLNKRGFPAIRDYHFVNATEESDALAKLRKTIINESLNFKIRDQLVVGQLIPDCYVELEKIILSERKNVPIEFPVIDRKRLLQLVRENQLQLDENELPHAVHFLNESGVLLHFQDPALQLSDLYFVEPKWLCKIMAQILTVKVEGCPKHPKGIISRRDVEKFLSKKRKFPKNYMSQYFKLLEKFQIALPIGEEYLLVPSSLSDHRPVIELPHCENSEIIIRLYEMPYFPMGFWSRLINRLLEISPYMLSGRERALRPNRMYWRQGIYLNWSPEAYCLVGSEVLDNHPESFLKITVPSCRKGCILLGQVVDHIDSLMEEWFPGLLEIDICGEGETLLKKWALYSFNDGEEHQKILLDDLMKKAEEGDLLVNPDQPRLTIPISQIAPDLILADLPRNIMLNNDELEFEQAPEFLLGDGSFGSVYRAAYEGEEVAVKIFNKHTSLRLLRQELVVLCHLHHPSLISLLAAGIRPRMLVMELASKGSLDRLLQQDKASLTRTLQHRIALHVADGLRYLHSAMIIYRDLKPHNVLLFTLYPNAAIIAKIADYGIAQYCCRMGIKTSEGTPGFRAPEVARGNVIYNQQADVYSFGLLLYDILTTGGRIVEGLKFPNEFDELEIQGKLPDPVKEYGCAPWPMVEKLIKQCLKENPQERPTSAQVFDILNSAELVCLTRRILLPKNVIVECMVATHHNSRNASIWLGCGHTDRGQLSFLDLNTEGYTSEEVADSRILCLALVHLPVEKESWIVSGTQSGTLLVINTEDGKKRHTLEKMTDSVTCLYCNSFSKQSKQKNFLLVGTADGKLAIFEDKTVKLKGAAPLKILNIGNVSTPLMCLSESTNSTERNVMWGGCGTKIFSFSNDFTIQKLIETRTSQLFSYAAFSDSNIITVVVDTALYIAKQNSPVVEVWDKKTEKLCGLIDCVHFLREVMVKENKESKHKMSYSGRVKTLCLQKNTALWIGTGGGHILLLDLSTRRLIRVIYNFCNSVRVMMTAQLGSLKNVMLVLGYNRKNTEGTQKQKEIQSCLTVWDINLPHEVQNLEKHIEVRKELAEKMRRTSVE
Sequence of mutant G2019S LRRK2 (Q5S007 970-2527 G2019S limits assumed): as the sequence (Q5S007 970-2527 limits assumed) above, with G1050S counted along it

| IC50 [1, 2] [nM] | IC50 (mutant G2019S LRRK2; [3]) [nM] | IC50 ([1]; 100 nM LRRKtide, 1000 mM ATP (so in the source), 30 minutes at room temperature) [nM] | IC50 (mutant G2019S LRRK2; 100 nM LRRKtide, 1000 mM ATP (so in the source), 30 minutes at room temperature, read-out: LRRK2, Format 2 G2019S mutant IC50) [nM] | SMILES |
| --- | --- | --- | --- | --- |
| 29.3 | 33.5 |  |  | Cc1cc(Cc2nc3cnc4ccc(C#N)cc4c3n2[C@H]2CC[C@@H](F)C2)no1 [Example 241, 1-[(1S,3R)-3-fluorocyclopentyl]-2-[(5-methyl-1,2-oxazol-3-yl)methyl]-1H-imidazo[4,5-c]quinoline-8-carbonitrile, formate salt] |
| 18.2 | 22.7 |  |  | Cc1cn(Cc2nc3cnc4ccc(Cl)cc4c3n2[C@H]2CC[C@@H](F)C2)nn1 (single isomer, unassigned) [Example C55, 8-chloro-1-(cis-3-fluorocyclopentyl)-2-[(4-methyl-1H-1,2,3-triazol-1-yl)methyl]-1H-imidazo[4,5-c]quinoline] |
| 7.49 | 10.8 |  |  | COCc1cn(Cc2nc3cnc4ccc(C#N)cc4c3n2[C@@H]2CC[C@H](F)C2)nn1 (single isomer, unassigned; ent-1) [Example 132, 1-(cis-3-fluorocyclopentyl)-2-{[4-(methoxymethyl)-1H-1,2,3-triazol-1-yl]methyl}-1H-imidazo[4,5-c]quinoline-8-carbonitrile, ENT-1] |
| 2.76 | 2.79 |  |  | C[C@@H]1C[C@H](n2c(Cc3cc(CF)on3)nc3cnc4ccc(Cl)cc4c32)CCO1 [Example 139, 8-chloro-2-{[5-(fluoromethyl)-1,2-oxazol-3-yl]methyl}-1-[(2R,4R)-2-methyltetrahydro-2H-pyran-4-yl]-1H-imidazo[4,5-c]quinoline] |
| 6.06 | 6.15 |  |  | Cc1ccn2cc(Cc3nc4cnc5ccc(Cl)cc5c4n3[C@@H]3CCO[C@H](C)C3)nc2n1 [Example 159, 8-chloro-2-[(7-methylimidazo[1,2-a]pyrimidin-2-yl)methyl]-1-[(2R,4R)-2-methyltetrahydro-2H-pyran-4-yl]-1H-imidazo[4,5-c]quinoline] |
| 26.6 | 26.2 |  |  | Cc1cnn(Cc2nc3cnc4ccc(C#N)cc4c3n2[C@H]2CCN(C)C2)c1 [Example 190, 2-[(4-methyl-1H-pyrazol-1-yl)methyl]-1-[(3S)-1-methylpyrrolidin-3-yl]-1H-imidazo[4,5-c]quinoline-8-carbonitrile] |
| 6.22 | 5.33 |  |  | C[C@@H]1C[C@H](n2c(Cn3cnnn3)nc3cnc4ccc(C#N)cc4c32)CCO1 [Example 124, 1-[(2R,4R)-2-methyltetrahydro-2H-pyran-4-yl]-2-(1H-tetrazol-1-ylmethyl)-1H-imidazo[4,5-c]quinoline-8-carbonitrile, formate salt] |
| 79.4 | 89.7 |  |  | Cc1cc(Cc2nc3cnc4ccc(C#N)cc4c3n2C2CCCC(F)(F)C2)no1 (centres unmarked) [Example 244, 1-(3,3-difluorocyclohexyl)-2-[(5-methyl-1,2-oxazol-3-yl)methyl]-1H-imidazo[4,5-c]quinoline-8-carbonitrile, formate salt] |
| 7.01 | 7.25 |  |  | C[C@@H]1C[C@H](n2c(Cc3ccn(C)n3)nc3cnc4ccc(Cl)cc4c32)CCO1 [Example 163, 8-chloro-2-[(1-methyl-1H-pyrazol-3-yl)methyl]-1-[(2R,4R)-2-methyltetrahydro-2H-pyran-4-yl]-1H-imidazo[4,5-c]quinoline] |
| 5.36 | 6 |  |  | Cc1cc(Cc2nc3cnc4ccc(C#N)cc4c3n2[C@@H]2CCO[C@H](C)C2)on1 [Example 95, 2-[(3-Methyl-1,2-oxazol-5-yl)methyl]-1-[(2R,4R)-2-methyltetrahydro-2H-pyran-4-yl]-1H-imidazo[4,5-c]quinoline-8-carbonitrile] |
| 7.18 | 6.95 |  |  | C[C@@H]1C[C@H](n2c(Cc3nnnn3C)nc3cnc4ccc(Cl)cc4c32)CCO1 [Example 128, 8-chloro-1-[(2R,4R)-2-methyltetrahydro-2H-pyran-4-yl]-2-[(1-methyl-1H-tetrazol-5-yl)methyl]-1H-imidazo[4,5-c]quinoline, formate salt] |
| 12.2 | 16.3 |  |  | N#Cc1ccc2ncc3nc(Cc4cscn4)n([C@@H]4CC[C@H](F)C4)c3c2c1 (single isomer, unassigned; ent-1) [Example 203, 1-(cis-3-fluorocyclopentyl)-2-(1,3-thiazol-4-ylmethyl)-1H-imidazo[4,5-c]quinoline-8-carbonitrile, ENT-1] |
| 4.54 | 5.82 |  |  | Cc1nn2cc(Cc3nc4cnc5ccc(C#N)cc5c4n3CC(C)(F)F)nc2s1 [Example 226, 1-(2,2-difluoropropyl)-2-[(2-methylimidazo[2,1-b][1,3,4]thiadiazol-6-yl)methyl]-1H-imidazo[4,5-c]quinoline-8-carbonitrile] |
| 3.86 | 3.83 |  |  | Cc1nn2cc(Cc3nc4cnc5ccc(Cl)cc5c4n3[C@@H]3CCO[C@H](C)C3)nc2s1 [Example 162, 8-chloro-2-[(2-methylimidazo[2,1-b][1,3,4]thiadiazol-6-yl)methyl]-1-[(2R,4R)-2-methyltetrahydro-2H-pyran-4-yl]-1H-imidazo[4,5-c]quinoline, formate salt] |
| 21.9 | 25.6 |  |  | Cc1cnn(Cc2nc3cnc4ccc(C#N)cc4c3n2[C@H]2CC[C@@H](F)C2)c1 (single isomer, unassigned) [Example C58, 1-[cis-3-fluorocyclopentyl]-2-[(4-methyl-1H-pyrazol-1-yl)methyl]-1H-imidazo[4,5-c]quinoline-8-carbonitrile] |
| 2.07 | 1.38 |  |  | Cc1cnc(Cc2nc3cnc4ccc(C(F)(F)F)cc4c3n2[C@@H]2CCO[C@H](C)C2)cn1 [Example 141, 2-[(5-methylpyrazin-2-yl)methyl]-1-[(2R,4R)-2-methyltetrahydro-2H-pyran-4-yl]-8-(trifluoromethyl)-1H-imidazo[4,5-c]quinoline] |
| 9.08 | 8.59 |  |  | C[C@@H]1C[C@H](n2c(Cc3ccncn3)nc3cnc4ccc(C#N)cc4c32)CCO1 [Example 222, 1-[(2R,4R)-2-methyltetrahydro-2H-pyran-4-yl]-2-(pyrimidin-4-ylmethyl)-1H-imidazo[4,5-c]quinoline-8-carbonitrile] |
| 51.8 | 35.7 |  |  | Cc1cc(Cc2nc3cnc4ccc(C#N)cc4c3n2[C@H]2CC[C@H](O)CC2)no1 [Example 240, 1-(trans-4-hydroxycyclohexyl)-2-[(5-methyl-1,2-oxazol-3-yl)methyl]-1H-imidazo[4,5-c]quinoline-8-carbonitrile, formate salt] |
| 85.1 | 59.5 |  |  | Cc1cc(Cc2nc3cnc4ccc(C#N)cc4c3n2[C@H]2CC[C@](C)(O)CC2)no1 [Example 247, 1-(trans-4-hydroxy-4-methylcyclohexyl)-2-[(5-methyl-1,2-oxazol-3-yl)methyl]-1H-imidazo[4,5-c]quinoline-8-carbonitrile, formate salt] |
| 5.43 | 11.1 |  |  | Cc1cc(Cc2nc3cnc4ccc(C#N)cc4c3n2C2CCN(C)C2)no1 (centres unmarked) [Example 217, 2-[(5-methyl-1,2-oxazol-3-yl)methyl]-1-(1-methylpyrrolidin-3-yl)-1H-imidazo[4,5-c]quinoline-8-carbonitrile, formate salt] |
| 16.8 | 19.6 |  |  | C[C@@H]1C[C@H](n2c(C(=O)c3ccon3)nc3cnc4ccc(Cl)cc4c32)CCO1 [Example 174, {8-chloro-1-[(2R,4R)-2-methyltetrahydro-2H-pyran-4-yl]-1H-imidazo[4,5-c]quinolin-2-yl}(1,2-oxazol-3-yl)methanone] |
| 6.31 | 4.65 |  |  | COc1ccc(Cc2nc3cnc4ccc(C#N)cc4c3n2[C@@H]2CCO[C@H](C)C2)nc1 [Example 96, 2-[(5-Methoxypyridin-2-yl)methyl]-1-[(2R,4R)-2-methyltetrahydro-2H-pyran-4-yl]-1H-imidazo[4,5-c]quinoline-8-carbonitrile] |
| 6.39 | 6.94 |  |  | C[C@@H]1C[C@H](n2c(Cn3nccn3)nc3cnc4ccc(Cl)cc4c32)CCO1 [Example 161, 8-chloro-1-[(2R,4R)-2-methyltetrahydro-2H-pyran-4-yl]-2-(2H-1,2,3-triazol-2-ylmethyl)-1H-imidazo[4,5-c]quinoline, formate salt] |
| 22.8 | 35.1 |  |  | N#CCc1nc2cnc3ccc(Cl)cc3c2n1[C@@H]1CC[C@H](F)C1 (single isomer, unassigned; ent-1) [Example 204, {8-chloro-1-(cis-3-fluorocyclopentyl)-1H-imidazo[4,5-c]quinolin-2-yl}acetonitrile, ENT-1] |
| 30.4 | 29.9 |  |  | CO[C@H]1C[C@@H](n2c(Cn3cc(C)cn3)nc3cnc4ccc(Cl)cc4c32)C1 [Example 180, 8-chloro-1-[(1s,3s)-3-methoxycyclobutyl]-2-[(4-methyl-1H-pyrazol-1-yl)methyl]-1H-imidazo[4,5-c]quinoline] |
| 14.3 | 18.6 |  |  | Cc1cc(Cc2nc3cnc4ccc(C#N)cc4c3n2[C@H]2CCC[C@H]2F)no1 (racemic) [Example 245, 1-(cis-2-fluorocyclopentyl)-2-[(5-methyl-1,2-oxazol-3-yl)methyl]-1H-imidazo[4,5-c]quinoline-8-carbonitrile, formate salt] |
|  |  | 26.8 | 34.5 | COCc1cn(Cc2nc3cnc4ccc(C#N)cc4c3n2C2CCC(F)C2)nn1 (single isomer, unassigned; ent-2) [enantiomer of Example 132, 1-(cis-3-fluorocyclopentyl)-2-{[4-(methoxymethyl)-1H-1,2,3-triazol-1-yl]methyl}-1H-imidazo[4,5-c]quinoline-8-carbonitrile, ENT-2] |
| 6.33 | 6.01 |  |  | Cc1cnn(Cc2nc3cnc4ccc(C#N)cc4c3n2[C@H]2CC[C@@H](F)C2)c1 (single isomer, unassigned) [Example 94, 1-[cis-3-Fluorocyclopentyl]-2-[(4-methyl-1H-pyrazol-1-yl)methyl]-1H-imidazo[4,5-c]quinoline-8-carbonitrile] |
